Experimental findings from patent US11149031B2, “Substituted N-(3-fluoropropyl)-pyrrolidine compounds, processes for their preparation and therapeutic uses thereof” (SANOFI, priority 2016, dated 2021) are described below.

Assay [1] has as its target His6-ERα298-554 WT (ERα ligand-binding domain) (Homo sapiens (Human), UniProt P03372). The assay can be described thus: Test A: biochemical antagonist activity, LanthaScreen TR-FRET ERα coactivator assay, WT. Particulars: read-out: Antagonism WT IC50. Put shortly: (§1)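 Compounds were added to receptor LBD (0.5 nM), terbium-labelled His6 antibody (0.5 nM), PGC1a coactivator peptide (250 nM) and estradiol at 3 nM or 10 nM. After incubating overnight at room temperature, the 520:495 nm ratio gave IC50 values by four-parameter logistic regression.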
For orientation: In TR-FRET formats the signal depends on donor and acceptor labels being close together.

The target of assay [2] is His6-ERα298-554 D538G mutant (ERα ligand-binding domain) (Homo sapiens (Human), UniProt P03372, D538G). The assay is described as follows: Test A: biochemical antagonist activity, LanthaScreen TR-FRET ERα coactivator assay, D538G mutant. Particulars: read-out: Antagonism D538G IC50. Put shortly: as §1
Assay [3] deals with His6-ERα298-554 Y537S mutant (ERα ligand-binding domain) (Homo sapiens (Human), UniProt P03372, Y537S). The assay can be described thus: Test A: biochemical antagonist activity, LanthaScreen TR-FRET ERα coactivator assay, Y537S mutant. Particulars: read-out: Antagonism Y537S IC50. Put shortly: as §1
Assay [4] concerns MCF7 cells (breast tumor cells) WT. The assay can be described thus: Test B: cell proliferation/viability assay (CellTiter-Glo) on MCF7 WT. In kind it is cell-based. Particulars: Homo sapiens, MCF7, 168 h, 7 days of compound exposure. The procedure:
(§2) Test B: Cell Proliferation/Viability Assay on MCF7 (Breast Tumor Cells) WT and Mutants Cell Lines
(§3) Test B involves measuring the in vitro proliferation activity of the compounds of the invention by analyzing the viability of the tumor cells.
The measurements of the viability were made using a breast cancer cell viability assay as described hereunder. […]
(§4) MCF7 cells (ATCC) or MCF7 cells expressing (and dependent) on mutants estrogen receptor Tyr 537 Ser or Asp 538 Gly were seeded in 384 wells microplate at concentration of >999 cells/30 μL per well in red phenol free MEM medium containing 5% charcoal dextran striped FBS. The following day, 9 points serial 1:5 dilution of each compound were added to the cells in 20 μL at final concentrations ranging from 3-0.000001 μM. After 7 days of compound exposure, 50 μL of CellTiter-Glo (promega) was added to the cells and relative luminescence arbitrary units (RLUs) were determined in luminescence plate reader (Envision device). CellTiter-Glo was added to 50 μL medium without cells to determine the background signal.
(§5) The percent of viability of each sample was determined as follows: (RLU sample−RLU background/RLU untreated−RLU background)*100=% viability.

Assay [5] concerns MCF7 cells expressing mutant estrogen receptor Tyr 537 Ser. The assay is described as follows: Test B: cell proliferation/viability assay (CellTiter-Glo) on MCF7 Tyr 537 Ser mutant. In kind it is cell-based. Particulars: Homo sapiens, MCF7, 168 h, MCF7 cells expressing ER Tyr 537 Ser mutant, 7 days of compound exposure, read-out: proliferation MCF7 Y537S IC50.
From the text: as §2, §3
(§6) The measurements of the viability were made using a breast cancer cell viability assay as described hereunder.
(§7) MCF7 cells expressing (and dependent) on mutants estrogen receptor Tyr 537 Ser or Asp 538 Gly were generated by transfection of MCF7 parental cells (ATCC) with expression vectors coding for different mutants of estrogen receptor Tyr 537 Ser or Asp 538 Gly. The cells were first selected by antibiotic (related to vector expression) and then selected for their growth dependence on estrogen receptor based on their ability to grow in vitro in absence of estradiol (parental cell line die in absence of estradiol).
as §4, §5

For assay [6], the system named is MCF7 cells expressing mutant estrogen receptor Asp 538 Gly. The assay is described as follows: Test B: cell proliferation/viability assay (CellTiter-Glo) on MCF7 Asp 538 Gly mutant. In kind it is cell-based. Particulars: Homo sapiens, MCF7, 168 h, MCF7 cells expressing ER Asp 538 Gly mutant, 7 days of compound exposure, read-out: proliferation MCF7 D538G IC50.
From the text: as §2, §3, §6, §7, §4, §5
On the technique in general: In ATP-based viability assays light output follows the ATP content of the culture.

For the next assay, the target named is ERα in MCF7 cells (Homo sapiens (Human), UniProt P03372). The assay can be described thus: Test C: estrogen receptor degradation activity, ERα in cell western assay in MCF7 cells. In kind it is cell-based. Particulars: for DC50: 4 hours post compound addition, ERα in cell western, read-out: Degradation IC50; for % Degradation at 3 μM: 4 hours, relative to fulvestrant. In short, it runs like this:
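Cells seeded in stripped-serum medium are dosed the next day across a nine-concentration series (3 down to 0.000018 μM). Four hours later they are fixed, blocked, probed overnight with anti-ERα antibody, then labelled with an Alexa 488 secondary and a DNA dye before plate scanning.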

Setting [7] is: asterisk (*): protocol using 10 nM estradiol.

Structures are written as SMILES. Where two headings read alike, the source gives them in different places.

Sequence of His6-ERα298-554 Y537S mutant (ERα ligand-binding domain) (P03372 298-554 Y537S): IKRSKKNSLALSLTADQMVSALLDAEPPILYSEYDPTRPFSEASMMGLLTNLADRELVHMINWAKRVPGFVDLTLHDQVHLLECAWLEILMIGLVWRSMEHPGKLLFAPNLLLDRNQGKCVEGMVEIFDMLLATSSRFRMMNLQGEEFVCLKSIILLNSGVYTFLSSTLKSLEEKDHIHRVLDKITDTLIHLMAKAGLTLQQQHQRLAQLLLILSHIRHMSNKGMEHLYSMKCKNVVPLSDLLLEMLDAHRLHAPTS
Sequence of ERα in MCF7 cells (P03372 whole entry): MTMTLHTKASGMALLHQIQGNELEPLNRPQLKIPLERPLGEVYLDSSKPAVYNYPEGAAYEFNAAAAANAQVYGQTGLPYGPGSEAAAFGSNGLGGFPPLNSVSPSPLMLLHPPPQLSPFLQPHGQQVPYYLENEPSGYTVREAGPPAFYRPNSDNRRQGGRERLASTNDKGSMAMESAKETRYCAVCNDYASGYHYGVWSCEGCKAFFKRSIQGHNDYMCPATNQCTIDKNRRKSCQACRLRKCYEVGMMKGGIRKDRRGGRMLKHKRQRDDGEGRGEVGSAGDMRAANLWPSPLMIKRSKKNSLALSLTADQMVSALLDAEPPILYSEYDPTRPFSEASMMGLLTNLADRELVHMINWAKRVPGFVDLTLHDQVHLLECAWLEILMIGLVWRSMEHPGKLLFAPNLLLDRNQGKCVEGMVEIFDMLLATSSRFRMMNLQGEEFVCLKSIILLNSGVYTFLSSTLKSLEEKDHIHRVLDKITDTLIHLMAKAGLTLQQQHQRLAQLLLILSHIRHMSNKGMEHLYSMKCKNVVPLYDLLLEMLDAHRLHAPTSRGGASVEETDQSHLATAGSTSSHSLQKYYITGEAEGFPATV
Sequence of His6-ERα298-554 WT (ERα ligand-binding domain) (P03372 298-554): as the sequence (P03372 298-554 Y537S) above, with S240Y counted along it
Sequence of His6-ERα298-554 D538G mutant (ERα ligand-binding domain) (P03372 298-554 D538G): as the sequence (P03372 298-554 Y537S) above, with S240Y, D241G counted along it

For `CCOc1ccc(C2=C(c3ccc(O[C@H]4CCN(CCCF)C4)cc3)c3ccc(O)cc3SC2)c(F)c1` [Example 26, 3-(4-ethoxy-2-fluoro-phenyl)-4-[4-[(3S)-1-(3-fluoropropyl)pyrrolidin-3-yl]oxyphenyl]-2H-thiochromen-7-ol], the IC50 was 3 nM in assay [1] (protocol with 3 nM estradiol); 67 nM in assay [2] (protocol with 3 nM estradiol); 39 nM in assay [3] (protocol with 3 nM estradiol); 0.9 nM in assay [4]; 10 nM in assay [5]; 2 nM in assay [6]. Further, the DC50 on ERα in MCF7 cells was 0.8 nM. In addition, the “% Degradation at 3 μM” value at ERα in MCF7 cells came to 90%.

For the compound `CCOc1ccc(C2=C(c3ccc(O[C@H]4CCN(CCCF)C4)cc3)c3ccc(O)cc3SC2)c(F)n1` [Example 27, 3-(6-ethoxy-2-fluoro-3-pyridyl)-4-[4-[(3S)-1-(3-fluoropropyl)pyrrolidin-3-yl]oxyphenyl]-2H-thiochromen-7-ol], the IC50 stood at 2 nM in assay [1] (setting [7]); 38 nM in assay [2] (setting [7]); 21 nM in assay [3] (setting [7]); 0.4 nM in assay [4]; 6 nM in assay [5]; 2 nM in assay [6]. Moreover, the DC50 on ERα in MCF7 cells stood at 0.6 nM. Further, the “% Degradation at 3 μM” value on ERα in MCF7 cells came to 94%.

`Oc1ccc2c(c1)SCC(c1ccc3c(c1)OCCO3)=C2c1ccc(O[C@H]2CCN(CCCF)C2)cc1` [Example 28, 3-(2,3-dihydro-1,4-benzodioxin-6-yl)-4-[4-[(3S)-1-(3-fluoropropyl)pyrrolidin-3-yl]oxyphenyl]-2H-thiochromen-7-ol]: the IC50 in assay [1] (setting [7]) stood at 4 nM; in assay [2] (setting [7]) it was 68 nM; in assay [3] (setting [7]) it was 41 nM; in assay [4], 0.7 nM; in assay [5] it was 11 nM; in assay [6] it was 2 nM. For the same compound, the DC50 at ERα in MCF7 cells came to 0.3 nM. Moreover, at ERα in MCF7 cells, the “% Degradation at 3 μM” value turned out to be 80%.

On to `CC1(C)Cc2cc(C3=C(c4ccc(O[C@H]5CCN(CCCF)C5)cc4)c4ccc(O)cc4SC3)ccc2N1` [Example 29, 3-(2,2-dimethylindolin-5-yl)-4-[4-[(3S)-1-(3-fluoropropyl)pyrrolidin-3-yl]oxyphenyl]-2H-thiochromen-7-ol], for which the IC50 was 14 nM in assay [1] (setting [7]); 240 nM in assay [2] (setting [7]); 130 nM in assay [3] (setting [7]); 0.4 nM in assay [4]; 6 nM in assay [5]; 0.9 nM in assay [6]. Moreover, on ERα in MCF7 cells, the DC50 worked out at 0.2 nM. Also, the “% Degradation at 3 μM” value at ERα in MCF7 cells worked out at 92%.

Turning to `Oc1ccc2c(c1)SCC(c1ccc(OC(F)F)c(F)c1)=C2c1ccc(O[C@H]2CCN(CCCF)C2)cc1` [Example 30, 3-[4-(difluoromethoxy)-3-fluoro-phenyl]-4-[4-[(3S)-1-(3-fluoropropyl)pyrrolidin-3-yl]oxyphenyl]-2H-thiochromen-7-ol], the IC50 was determined as 34 nM in assay [1] (protocol with 3 nM estradiol); 694 nM in assay [2] (protocol with 3 nM estradiol); 415 nM in assay [3] (protocol with 3 nM estradiol); 1 nM in assay [4]; 16 nM in assay [5]; 2 nM in assay [6]. For the same compound, the DC50 at ERα in MCF7 cells came out at 1 nM. Further, the “% Degradation at 3 μM” value on ERα in MCF7 cells amounted to 91%.

`Oc1ccc2c(c1)SCC(c1ccc3c(c1)OC(F)(F)O3)=C2c1ccc(O[C@H]2CCN(CCCF)C2)cc1` [Example 31, 3-(2,2-difluoro-1,3-benzodioxol-5-yl)-4-[4-[(3S)-1-(3-fluoropropyl)pyrrolidin-3-yl]oxyphenyl]-2H-thiochromen-7-ol]: the IC50 worked out at 5 nM in assay [1] (protocol with 3 nM estradiol); 101 nM in assay [2] (protocol with 3 nM estradiol); 59 nM in assay [3] (protocol with 3 nM estradiol); 0.4 nM in assay [4]; 6 nM in assay [5]; 1 nM in assay [6]. For the same compound, the DC50 at ERα in MCF7 cells was determined as 0.7 nM. In addition, the “% Degradation at 3 μM” value at ERα in MCF7 cells turned out to be 86%.

With `CC1(C)Cc2cc(C3=C(c4ccc(O[C@H]5CCN(CCCF)C5)cc4)c4ccc(O)cc4SC3)ccc2O1` [Example 32, 3-(2,2-dimethyl-3H-benzofuran-5-yl)-4-[4-[(3S)-1-(3-fluoropropyl)pyrrolidin-3-yl]oxyphenyl]-2H-thiochromen-7-ol], the IC50 is 19 nM in assay [1] (setting [7]); 314 nM in assay [2] (setting [7]); 168 nM in assay [3] (setting [7]); 0.4 nM in assay [4]; 6 nM in assay [5]; 1 nM in assay [6]. Further, on ERα in MCF7 cells, the DC50 worked out at 0.8 nM. In addition, the “% Degradation at 3 μM” value at ERα in MCF7 cells was 87%.

Turning to `CC(C)(O)c1ccc(C2=C(c3ccc(O[C@H]4CCN(CCCF)C4)cc3)c3ccc(O)cc3SC2)c(F)c1` [Example 33, 3-[2-fluoro-4-(1-hydroxy-1-methyl-ethyl)phenyl]-4-[4-[(3S)-1-(3-fluoropropyl)pyrrolidin-3-yl]oxyphenyl]-2H-thiochromen-7-ol], the IC50 in assay [1] (setting [7]) was 66 nM; in assay [2] (setting [7]), 1690 nM; in assay [3] (setting [7]), 596 nM; in assay [4] it was 4 nM; in assay [5], 22 nM; in assay [6], 2 nM. On ERα in MCF7 cells, the DC50 is 1 nM. The “% Degradation at 3 μM” value on ERα in MCF7 cells came to 84%.

`[2H]C([2H])([2H])Oc1ccc(C2=C(c3ccc(O[C@H]4CCN(CCCF)C4)cc3)c3ccc(O)cc3SC2)c(F)c1` [Example 34, 4-[4-[(3S)-1-(3-fluoropropyl)pyrrolidin-3-yl]oxyphenyl]-3-[2-fluoro-4-(trideuteriomethoxy)phenyl]-2H-thiochromen-7-ol]: the IC50 in assay [1] (setting [7]) was 4 nM; in assay [2] (setting [7]) it was 83 nM; in assay [3] (setting [7]) it was 46 nM; in assay [4] it was 0.5 nM; in assay [5] it was 4 nM; in assay [6], 0.5 nM. Moreover, on ERα in MCF7 cells, the DC50 was 0.4 nM. Further, the “% Degradation at 3 μM” value at ERα in MCF7 cells is on record as 85%.

With `Oc1ccc2c(c1)SCC(c1ccc(OC(F)F)cc1F)=C2c1ccc(O[C@H]2CCN(CCCF)C2)cc1` [Example 35, 3-[4-(difluoromethoxy)-2-fluoro-phenyl]-4-[4-[(3S)-1-(3-fluoropropyl)pyrrolidin-3-yl]oxyphenyl]-2H-thiochromen-7-ol], the IC50 is 16 nM in assay [1] (setting [7]); 421 nM in assay [2] (setting [7]); 220 nM in assay [3] (setting [7]); 0.2 nM in assay [4]; 2 nM in assay [5]; 0.3 nM in assay [6]. Besides, on ERα in MCF7 cells, the DC50 was 1 nM. In addition, the “% Degradation at 3 μM” value on ERα in MCF7 cells is given as 89%.

Turning to `CCOc1ccc(C2=C(c3ccc(O[C@H]4CCN(CCCF)C4)cc3)c3ccc(O)cc3SC2)c(Cl)c1` [Example 36, 3-(2-chloro-4-ethoxy-phenyl)-4-[4-[(3S)-1-(3-fluoropropyl)pyrrolidin-3-yl]oxyphenyl]-2H-thiochromen-7-ol], the IC50 came out at 11 nM in assay [1] (setting [7]); 257 nM in assay [2] (setting [7]); 154 nM in assay [3] (setting [7]); 0.5 nM in assay [4]; 3 nM in assay [5]; 0.5 nM in assay [6]. Moreover, on ERα in MCF7 cells, the DC50 was 0.2 nM. Besides, the “% Degradation at 3 μM” value at ERα in MCF7 cells is 83%.

For `Oc1ccc2c(c1)SCC(c1ccc(OC(F)(F)F)cc1F)=C2c1ccc(O[C@H]2CCN(CCCF)C2)cc1` [Example 37, 4-[4-[(3S)-1-(3-fluoropropyl)pyrrolidin-3-yl]oxyphenyl]-3-[2-fluoro-4-(trifluoromethoxy)phenyl]-2H-thiochromen-7-ol], the IC50 in assay [1] (protocol with 3 nM estradiol) turned out to be 41 nM; in assay [2] (protocol with 3 nM estradiol), 745 nM; in assay [3] (protocol with 3 nM estradiol), 475 nM; in assay [4], 0.6 nM; in assay [5], 4 nM; in assay [6], 0.6 nM. Moreover, the DC50 on ERα in MCF7 cells was 3 nM. The “% Degradation at 3 μM” value on ERα in MCF7 cells turned out to be 83%.
